According to ChEMBL document CHEMBL1126959, “HMG-CoA reductase inhibitors: design, synthesis, and biological activity of tetrahydroindazole-substituted 3,5-dihydroxy-6-heptenoic acid sodium salts” (J Med Chem, 1993):

Key:
[1] = biological target: T1, 3-hydroxy-3-methylglutaryl-coenzyme A reductase (Rattus norvegicus, UniProt P51639); assay: Inhibitory activity against partially purified rat liver HMG-CoA reductase in vitro; 0.07-0.27
T1 sequence (P51639 whole entry): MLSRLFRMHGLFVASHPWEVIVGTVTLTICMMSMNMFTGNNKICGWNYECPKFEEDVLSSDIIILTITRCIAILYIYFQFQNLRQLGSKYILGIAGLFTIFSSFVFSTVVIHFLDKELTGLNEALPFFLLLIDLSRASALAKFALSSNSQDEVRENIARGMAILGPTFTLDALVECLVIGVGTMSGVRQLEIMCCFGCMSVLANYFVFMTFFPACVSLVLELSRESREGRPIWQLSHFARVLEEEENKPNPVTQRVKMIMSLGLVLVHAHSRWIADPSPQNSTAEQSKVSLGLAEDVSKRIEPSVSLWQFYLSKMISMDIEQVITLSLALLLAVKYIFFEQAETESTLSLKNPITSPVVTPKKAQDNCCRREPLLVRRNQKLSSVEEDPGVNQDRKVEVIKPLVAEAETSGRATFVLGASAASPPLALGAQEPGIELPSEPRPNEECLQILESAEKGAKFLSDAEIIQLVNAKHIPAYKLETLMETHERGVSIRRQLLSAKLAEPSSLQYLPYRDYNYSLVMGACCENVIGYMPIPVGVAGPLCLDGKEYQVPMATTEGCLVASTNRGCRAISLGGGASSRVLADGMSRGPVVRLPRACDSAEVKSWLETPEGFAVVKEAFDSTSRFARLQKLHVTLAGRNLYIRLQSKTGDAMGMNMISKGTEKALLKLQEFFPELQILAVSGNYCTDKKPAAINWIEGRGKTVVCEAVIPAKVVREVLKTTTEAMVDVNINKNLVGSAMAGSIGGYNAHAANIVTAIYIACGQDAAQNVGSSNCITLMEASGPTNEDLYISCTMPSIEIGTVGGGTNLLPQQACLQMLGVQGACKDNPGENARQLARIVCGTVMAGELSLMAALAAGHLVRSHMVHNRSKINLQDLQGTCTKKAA

[2] = tested on: HepG2; assay: Tested for ability to inhibit incorporation of [14C]acetate into cholesterol in cultured human hepatoma (HEP-G2) cells; 0.56-2.2; type: functional, cell-based
[3] = tested on: HepG2; assay: Tested for ability to inhibit incorporation of [14C]acetate into cholesterol in cultured human hepatoma (HEP-G2) cells; 0.31-2.4; type: functional, cell-based
[4] = biological target: T1, 3-hydroxy-3-methylglutaryl-coenzyme A reductase; assay: Inhibitory activity against partially purified rat liver HMG-CoA reductase in vitro; 0.12-0.21
[5] = biological target: T1, 3-hydroxy-3-methylglutaryl-coenzyme A reductase; assay: Inhibitory activity against partially purified rat liver HMG-CoA reductase in vitro; 2.1-54
[6] = tested on: HepG2; assay: Tested for ability to inhibit incorporation of [14C]acetate into cholesterol in cultured human hepatoma (HEP-G2) cells; 1.3-2.3; type: functional, cell-based
[7] = biological target: T1, 3-hydroxy-3-methylglutaryl-coenzyme A reductase; assay: Inhibitory activity against partially purified rat liver HMG-CoA reductase in vitro; 0.41-0.73
[8] = biological target: T1, 3-hydroxy-3-methylglutaryl-coenzyme A reductase; assay: Inhibitory activity against partially purified rat liver HMG-CoA reductase in vitro; 0.0040-0.053
[9] = tested on: HepG2; assay: Tested for ability to inhibit incorporation of [14C]acetate into cholesterol in cultured human hepatoma (HEP-G2) cells; 0.15-0.33; type: functional, cell-based
[10] = tested on: HepG2; assay: Tested for ability to inhibit incorporation of [14C]acetate into cholesterol in cultured human hepatoma (HEP-G2) cells; 0.0071-23; type: functional, cell-based
[11] = biological target: T1, 3-hydroxy-3-methylglutaryl-coenzyme A reductase; assay: Inhibitory activity against partially purified rat liver HMG-CoA reductase in vitro; 0.16-0.24
[12] = biological target: T1, 3-hydroxy-3-methylglutaryl-coenzyme A reductase; assay: Inhibitory activity against partially purified rat liver HMG-CoA reductase in vitro; 0.0015-0.0049
[13] = tested on: HepG2; assay: Tested for ability to inhibit incorporation of [14C]acetate into cholesterol in cultured human hepatoma (HEP-G2) cells; 0.013-0.81; type: functional, cell-based
[14] = tested on: HepG2; assay: Tested for ability to inhibit incorporation of [14C]acetate into cholesterol in cultured human hepatoma (HEP-G2) cells; 0.44-3.0; type: functional, cell-based
[15] = biological target: T1, 3-hydroxy-3-methylglutaryl-coenzyme A reductase; assay: Inhibitory activity against partially purified rat liver HMG-CoA reductase in vitro; 0.027-0.046
[16] = biological target: T1, 3-hydroxy-3-methylglutaryl-coenzyme A reductase; assay: Inhibitory activity against partially purified rat liver HMG-CoA reductase in vitro; 2.6-4.8
[17] = biological target: T1, 3-hydroxy-3-methylglutaryl-coenzyme A reductase; assay: Inhibitory activity against partially purified rat liver HMG-CoA reductase in vitro; 1.2-3.3
[18] = tested on: HepG2; assay: Tested for ability to inhibit incorporation of [14C]acetate into cholesterol in cultured human hepatoma (HEP-G2) cells; 0.046-0.17; type: functional, cell-based
[19] = biological target: T1, 3-hydroxy-3-methylglutaryl-coenzyme A reductase; assay: Inhibitory activity against partially purified rat liver HMG-CoA reductase in vitro; 0.021-0.036
[20] = tested on: HepG2; assay: Tested for ability to inhibit incorporation of [14C]acetate into cholesterol in cultured human hepatoma (HEP-G2) cells; 0.051-0.12; type: functional, cell-based
[21] = tested on: HepG2; assay: Tested for ability to inhibit incorporation of [14C]acetate into cholesterol in cultured human hepatoma (HEP-G2) cells; 0.70-1.4; type: functional, cell-based
[22] = biological target: T1, 3-hydroxy-3-methylglutaryl-coenzyme A reductase; assay: Inhibitory activity against partially purified rat liver HMG-CoA reductase in vitro; 0.038-0.18
[23] = biological target: T1, 3-hydroxy-3-methylglutaryl-coenzyme A reductase; assay: Inhibitory activity against partially purified rat liver HMG-CoA reductase in vitro; 0.0073-0.017
[24] = tested on: HepG2; assay: Tested for ability to inhibit incorporation of [14C]acetate into cholesterol in cultured human hepatoma (HEP-G2) cells; 0.019-0.14; type: functional, cell-based
[25] = biological target: T1, 3-hydroxy-3-methylglutaryl-coenzyme A reductase; assay: Inhibitory activity against partially purified rat liver HMG-CoA reductase in vitro; 1.9-5.3

With `O=C(O)C[C@H](O)C[C@H](O)/C=C/c1c2c(nn1-c1ccc(F)cc1)C(Cc1ccc(Cl)cc1)CCC2` (stereo partly specified) the IC50 [1] was 140 nM and the IC50 [2] was 1100 nM.
In the case of `O=C(O)C[C@H](O)C[C@H](O)/C=C/c1c2c(nn1-c1ccc(F)cc1)C(CCCc1ccccc1)CCC2` (stereo partly specified), the IC50 [3] is reported as 870 nM and the IC50 [4] is reported as 160 nM.
`O=C(O)C[C@H](O)C[C@H](O)/C=C/c1c2c(nn1-c1ccc(F)cc1)CCC2` gave an IC50 [5] of 11000 nM.
With `O=C(O)C[C@H](O)C[C@H](O)/C=C/c1c2c(nn1-c1ccc(F)cc1)C(CCc1ccccc1)CCC2` (stereo partly specified) the IC50 [6] was 1700 nM and the IC50 [7] was 540 nM.
`CC(C)c1ccc(CC2CCCc3c2nn(-c2ccc(F)cc2)c3/C=C/[C@@H](O)C[C@@H](O)CC(=O)O)cc1` (stereo partly specified) was tested, and the IC50 [8] was 40 nM and the IC50 [9] was 230 nM.
For `O=C(O)C[C@H](O)C[C@H](O)/C=C/c1c2c(nn1-c1ccc(F)cc1)C(Cc1ccc(F)cc1)CCC2` (stereo partly specified), the IC50 [10] was 400 nM and the IC50 [11] was 200 nM.
Molecule `O=C(O)C[C@H](O)C[C@H](O)/C=C/c1c2c(nn1-c1ccc(F)cc1)C(Cc1ccc(-c3ccccc3)cc1)CCC2` (stereo partly specified) has an IC50 [12] of 3 nM and an IC50 [13] of 100 nM.
In the case of `COc1cccc(CC2CCCc3c2nn(-c2ccc(F)cc2)c3/C=C/[C@@H](O)C[C@@H](O)CC(=O)O)c1` (stereo partly specified), the IC50 [14] is reported as 1200 nM and the IC50 [15] is reported as 35 nM.
`O=C(O)C[C@H](O)C[C@H](O)/C=C/c1c2c(nn1-c1ccc(F)cc1)CCCCC2` gave an IC50 [16] of 3600 nM.
`CCC1CCCc2c1nn(-c1ccc(F)cc1)c2/C=C/[C@@H](O)C[C@@H](O)CC(=O)O` (stereo partly specified) showed an IC50 [17] of 2000 nM.
Molecule `CC(C)(C)c1ccc(CC2CCCc3c2nn(-c2ccc(F)cc2)c3/C=C/[C@@H](O)C[C@@H](O)CC(=O)O)cc1` (stereo partly specified) has an IC50 [8] of 14 nM and an IC50 [18] of 88 nM.
`Cc1ccc(CC2CCCc3c2nn(-c2ccc(F)cc2)c3/C=C/[C@@H](O)C[C@@H](O)CC(=O)O)cc1` (stereo partly specified) gave an IC50 [19] of 28 nM and an IC50 [20] of 78 nM.
`O=C(O)C[C@H](O)C[C@H](O)/C=C/c1c2c(nn1-c1ccc(F)cc1)C(C/C=C/c1ccccc1)CCC2` (stereo partly specified) was tested, and the IC50 [21] was 1000 nM and the IC50 [22] was 82 nM.
In the case of `CC[C@H](C)C(=O)O[C@H]1C[C@@H](C)C=C2C=C[C@H](C)[C@H](CC[C@@H]3C[C@@H](O)CC(=O)O3)C21` (stereo partly specified), the IC50 [23] is reported as 9.2 nM and the IC50 [24] is reported as 50 nM.
In the case of `CCCC1CCCc2c1nn(-c1ccc(F)cc1)c2/C=C/[C@@H](O)C[C@@H](O)CC(=O)O` (stereo partly specified), the IC50 [25] is reported as 3400 nM.
